From US20260327214A1, “1,3,4-OXADIAZOLE DERIVATIVE COMPOUNDS AS HISTONE DEACETYLASE 6 INHIBITOR, AND USES THEREOF” (CHONG KUN DANG PHARMACEUTICAL CORP., priority 2022, published 2026)

Key:
human recombinant HDAC6 = molecular target: T1, human recombinant HDAC6 (Homo sapiens, UniProt Q9UBN7); assay: HDAC6 enzyme activity inhibition test (HDAC Fluorometric Drug Discovery Kit); type: biochemical; conditions: for HDAC6 selectivity (fold): HDAC6 over HDAC1; for IC50: human recombinant HDAC6, same protocol as HDAC1
T1 construct: purchased Calbiochem 382180
T1 sequence (Q9UBN7 1-1215): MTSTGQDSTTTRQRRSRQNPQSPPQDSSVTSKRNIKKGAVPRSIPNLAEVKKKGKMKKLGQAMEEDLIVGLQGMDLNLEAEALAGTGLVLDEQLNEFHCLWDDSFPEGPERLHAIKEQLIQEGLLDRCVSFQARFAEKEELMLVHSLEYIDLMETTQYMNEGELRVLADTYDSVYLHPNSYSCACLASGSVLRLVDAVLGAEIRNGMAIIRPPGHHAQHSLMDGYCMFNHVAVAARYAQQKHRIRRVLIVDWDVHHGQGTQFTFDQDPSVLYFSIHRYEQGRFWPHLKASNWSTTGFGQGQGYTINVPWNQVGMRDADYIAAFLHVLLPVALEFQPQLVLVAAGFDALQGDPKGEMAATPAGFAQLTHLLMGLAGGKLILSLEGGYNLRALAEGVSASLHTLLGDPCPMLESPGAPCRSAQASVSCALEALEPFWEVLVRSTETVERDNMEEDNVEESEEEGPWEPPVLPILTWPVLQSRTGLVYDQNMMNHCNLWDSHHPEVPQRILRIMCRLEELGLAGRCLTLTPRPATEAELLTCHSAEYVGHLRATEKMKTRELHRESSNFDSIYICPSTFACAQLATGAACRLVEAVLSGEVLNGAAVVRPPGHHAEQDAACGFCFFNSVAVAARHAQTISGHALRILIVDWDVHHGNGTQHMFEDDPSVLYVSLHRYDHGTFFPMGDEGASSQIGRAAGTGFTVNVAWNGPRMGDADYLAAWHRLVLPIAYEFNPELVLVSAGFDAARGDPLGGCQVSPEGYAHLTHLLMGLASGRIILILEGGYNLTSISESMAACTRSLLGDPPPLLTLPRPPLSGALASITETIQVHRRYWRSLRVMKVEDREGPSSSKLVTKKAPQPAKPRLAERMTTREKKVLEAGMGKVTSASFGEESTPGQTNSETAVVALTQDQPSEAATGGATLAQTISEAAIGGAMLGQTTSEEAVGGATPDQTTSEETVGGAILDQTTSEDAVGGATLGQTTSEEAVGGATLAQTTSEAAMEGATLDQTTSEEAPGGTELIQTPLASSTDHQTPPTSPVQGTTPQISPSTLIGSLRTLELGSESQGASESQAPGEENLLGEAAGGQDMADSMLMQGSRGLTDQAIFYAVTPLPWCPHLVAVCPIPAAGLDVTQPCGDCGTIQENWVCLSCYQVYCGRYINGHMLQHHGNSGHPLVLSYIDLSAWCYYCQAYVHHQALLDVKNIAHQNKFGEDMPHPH
Method: (§1) The following experiment was conducted to confirm the HDAC6 selectivity of the compound represented by Chemical Formula I of the present invention through the HDAC1 and HDAC6 enzyme activity inhibition test.
(§2) HDAC enzyme activity was measured using HDAC Fluorometric Drug Discovery Kit (BML-AK511, 516) manufactured by Enzo Life Science. For the HDAC1 enzyme activity test, human recombinant HDAC1 (BML-SE456) was used as an enzyme source and Fluor de Lys-®-″SIRT1 (BNL-KI177) was used as a substrate. The 5-fold diluted compound was dispensed in a 96-well plate, 0.3 μg of enzyme and 10 μM substrate were added to each well and reacted at 30° C. for 60 minutes, and Fluor de Lys® Developer II(BML-KI176) was added and reacted for 30 minutes to complete the reaction. Then, the fluorescence value (Ex 360, Em 460) was measured using a multiplate reader (Flexstation 3, Molecular Device). The HDAC6 enzyme was tested using the same protocol as the HDAC1 enzyme activity test method employing human recombinant HDAC6 (382180) from Calbiochem. For the final result, each […] value was calculated using the GraphPad Prism 4.0 program.

human recombinant HDAC1 = molecular target: T2, human recombinant HDAC1 (Homo sapiens, UniProt Q13547); assay: HDAC1 enzyme activity inhibition test (HDAC Fluorometric Drug Discovery Kit); type: biochemical; conditions: 30° C., 60 minutes, 10 μM substrate
T2 construct: purchased Enzo Life Science BML-SE456
Method: as §1, §2

T2 sequence (Q13547 whole entry): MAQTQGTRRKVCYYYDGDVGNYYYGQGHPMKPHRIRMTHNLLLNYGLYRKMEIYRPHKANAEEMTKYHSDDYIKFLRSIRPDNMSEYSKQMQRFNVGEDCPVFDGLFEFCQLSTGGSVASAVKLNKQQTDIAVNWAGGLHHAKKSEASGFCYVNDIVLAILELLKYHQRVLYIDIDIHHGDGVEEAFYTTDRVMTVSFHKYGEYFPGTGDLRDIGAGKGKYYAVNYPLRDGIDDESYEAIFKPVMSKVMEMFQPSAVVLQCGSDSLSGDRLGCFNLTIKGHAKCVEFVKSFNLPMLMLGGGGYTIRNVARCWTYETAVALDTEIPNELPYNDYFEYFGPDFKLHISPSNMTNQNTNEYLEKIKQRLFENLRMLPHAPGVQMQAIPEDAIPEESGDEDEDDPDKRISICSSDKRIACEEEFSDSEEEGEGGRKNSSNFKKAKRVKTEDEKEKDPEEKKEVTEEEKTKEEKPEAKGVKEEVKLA

SMILES | HDAC6 selectivity (fold) (human recombinant HDAC6) | IC50 (human recombinant HDAC6) | IC50 (human recombinant HDAC1)
O=c1oc(-c2ccccc2)cn1Cc1ccc(-c2nnc(C(F)F)o2)cn1 [Compound 142, 3-((5-(5-(difluoromethyl)-1,3,4-oxadiazol-2-yl)pyridin-2-yl)methyl)-5-phenyloxazol-2(3H)-one] | 484 fold | 103 nM | > 50000 nM
CNCc1ccc(-c2nn(Cc3ccc(-c4nnc(C(F)F)o4)cn3)c(=S)o2)cc1 [Compound 92, 3-[[5-[5-(difluoromethyl)-1,3,4-oxadiazol-2-yl]-2-pyridyl]methyl]-5-[4-(methylaminomethyl)phenyl]-1,3,4-oxadiazol-2-thione] | 3185 fold | 15.7 nM | > 50000 nM
CC1CCN(Cc2cccc(-c3nn(Cc4ccc(-c5nnc(C(F)F)o5)cn4)c(=S)o3)c2)CC1 [Compound 88, 3-[[5-[5-(difluoromethyl)-1,3,4-oxadiazol-2-yl]-2-pyridyl]methyl]-5-[3-[(4-methyl-1-piperidyl)methyl]phenyl]-1,3,4-oxadiazol-2-thione] | 449 fold | 111 nM | > 50000 nM
CC(C)N1CCN(c2ccc(-c3nn(Cc4ccc(-c5nnc(C(F)F)o5)cn4)c(=O)o3)c(F)c2)CC1 [Compound 25, 3-[[5-[5-(difluoromethyl)-1,3,4-oxadiazol-2-yl]-2-pyridyl]methyl]-5-[2-fluoro-4-(4-isopropylpiperazin-1-yl)phenyl]-1,3,4-oxadiazol-2-one] | 642 fold | 77.9 nM | > 50000 nM
CCN(CC)Cc1ccc(-c2nn(Cc3ccc(-c4nnc(C(F)F)o4)cn3)c(=S)o2)s1 [Compound 122, 5-[5-(diethylaminomethyl)-2-thienyl]-3-[[5-[5-(difluoromethyl)-1,3,4-oxadiazol-2-yl]-2-pyridyl]methyl]-1,3,4-oxadiazol-2-thione] | 453 fold | 110 nM | > 50000 nM
FC(F)c1nnc(-c2ccc(Cn3nc(-c4ccc(CN5CC[C@@H](F)C5)s4)oc3=S)nc2)o1 [Compound 124, 3-[[5-[5-(difluoromethyl)-1,3,4-oxadiazol-2-yl]-2-pyridyl]methyl]-5-[5-[[(3R)-3-fluoropyrrolidin-1-yl]methyl]-2-thienyl]-1,3,4-oxadiazol-2-thione] | 491 fold | 102 nM | > 50000 nM
Fc1cc(-c2nnc(C(F)F)o2)cnc1Cn1nc(-c2cccc(CN3CCCCC3)c2)oc1=S [Compound 119, 3-[[5-[5-(difluoromethyl)-1,3,4-oxadiazol-2-yl]-3-fluoro-2-pyridyl]methyl]-5-[3-(1-piperidylmethyl)phenyl]-1,3,4-oxadiazol-2-thione] | 590 fold | 84.8 nM | > 50000 nM
O=c1sc(-c2cccc(CN3CCN(C4CCC4)CC3)c2)nn1Cc1ccc(-c2nnc(C(F)F)o2)cn1 [Compound 64, 5-[3-[(4-cyclobutylpiperazin-1-yl)methyl]phenyl]-3-[[5-[5-(difluoromethyl)-1,3,4-oxadiazol-2-yl]-2-pyridyl]methyl]-1,3,4-thiadiazol-2-one] | 418 fold | 120 nM | > 50000 nM
O=c1oc(-c2ccc(N3CCNCC3)cc2F)nn1Cc1ccc(-c2nnc(C(F)F)o2)cn1 [Compound 23, 3-[[5-[5-(difluoromethyl)-1,3,4-oxadiazol-2-yl]-2-pyridyl]methyl]-5-(2-fluoro-4-piperazin-1-yl-phenyl)-1,3,4-oxadiazol-2-one] | 942 fold | 53.1 nM | > 50000 nM
CN1CCC(c2ccc(-c3nn(Cc4ccc(-c5nnc(C(F)F)o5)cn4)c(=O)o3)cc2)CC1 [Compound 29, 3-[[5-[5-(difluoromethyl)-1,3,4-oxadiazol-2-yl]-2-pyridyl]methyl]-5-[4-(1-methyl-4-piperidyl)phenyl]-1,3,4-oxadiazol-2-one] | 745 fold | 67.1 nM | > 50000 nM
Cn1ccc2cc(-c3nn(Cc4ccc(-c5nnc(C(F)F)o5)cn4)c(=O)o3)cnc21 [Compound 32, 3-[[5-[5-(difluoromethyl)-1,3,4-oxadiazol-2-yl]-2-pyridyl]methyl]-5-(1-methylpyrrolo[2,3-b]pyridin-5-yl)-1,3,4-oxadiazol-2-one] | 774 fold | 64.6 nM | > 50000 nM
O=c1oc(-c2cccc(F)c2)cn1Cc1ccc(-c2nnc(C(F)F)o2)cn1 [Compound 143, 3-((5-(5-(difluoromethyl)-1,3,4-oxadiazol-2-yl)pyridin-2-yl)methyl)-5-(3-fluorophenyl)oxazol-2(3H)-one] | 374 fold | 134 nM | > 50000 nM
Fc1cc(-c2nnc(C(F)F)o2)cnc1Cn1nc(-c2cccs2)oc1=S [Compound 51, 3-[[5-[5-(difluoromethyl)-1,3,4-oxadiazol-2-yl]-3-fluoro-2-pyridyl]methyl]-5-(2-thienyl)-1,3,4-oxadiazol-2-thione] | 601 fold | 83.2 nM | > 50000 nM
O=c1oc(-c2ccccc2F)nn1Cc1ccc(-c2nnc(C(F)F)o2)cn1 [Compound 15, 3-[[5-[5-(difluoromethyl)-1,3,4-oxadiazol-2-yl]-2-pyridyl]methyl]-5-(2-fluorophenyl)-1,3,4-oxadiazol-2-one] | 524 fold | 95.5 nM | > 50000 nM
CN1CCc2cc(-c3nn(Cc4ncc(-c5nnc(C(F)F)o5)cc4F)c(=S)o3)ccc2C1 [Compound 135, 3-[[5-[5-(difluoromethyl)-1,3,4-oxadiazol-2-yl]-3-fluoro-2-pyridyl]methyl]-5-(2-methyl-3,4-dihydro-1H-isoquinolin-6-yl)-1,3,4-oxadiazol-2-thione] | 741 fold | 67.5 nM | > 50000 nM
CCN1CCc2cc(-c3nn(Cc4ccc(-c5nnc(C(F)F)o5)cn4)c(=S)o3)sc2C1 [Compound 140, 3-[[5-[5-(difluoromethyl)-1,3,4-oxadiazol-2-yl]-2-pyridyl]methyl]-5-(6-ethyl-5,7-dihydro-4H-thieno[2,3-c]pyridin-2-yl)-1,3,4-oxadiazol-2-thione] | 1114 fold | 44.9 nM | > 50000 nM
CC(C)N1CCc2ccc(-c3nn(Cc4ccc(-c5nnc(C(F)F)o5)cn4)c(=O)o3)cc2C1 [Compound 13, 3-[[5-[5-(difluoromethyl)-1,3,4-oxadiazol-2-yl]-2-pyridyl]methyl]-5-(2-isopropyl-3,4-dihydro-1H-isoquinolin-7-yl)-1,3,4-oxadiazol-2-one] | 475 fold | 105 nM | > 50000 nM
Cc1nc(-c2nn(Cc3ncc(-c4nnc(C(F)F)o4)cc3F)c(=S)o2)cs1 [Compound 60, 3-[[5-[5-(difluoromethyl)-1,3,4-oxadiazol-2-yl]-3-fluoro-2-pyridyl]methyl]-5-(2-methylthiazol-4-yl)-1,3,4-oxadiazol-2-thione] | 614 fold | 81.4 nM | > 50000 nM
CC(C)N1CCc2cc(-c3nn(Cc4ccc(-c5nnc(C(F)F)o5)cn4)c(=S)o3)sc2C1 [Compound 141, 3-[[5-[5-(difluoromethyl)-1,3,4-oxadiazol-2-yl]-2-pyridyl]methyl]-5-(6-isopropyl-5,7-dihydro-4H-thieno[2,3-c]pyridin-2-yl)-1,3,4-oxadiazol-2-thione] | 893 fold | 56 nM | > 50000 nM
